Assay results: PMC11163866 (Journal of medicinal chemistry, 2024)
Where a name gives a salt, the structure may show the parent alone.

Legend:
[1] = In vitro metabolic stability in mouse liver microsomes; type: in vitro ADME; settings: 1 μM; 0.5 mg/mL microsomes; up to 60 min
[2] = test system: Plasmodium yoelli; experiment: Plasmodium yoelli infection in mice; type: in vivo; settings: unpublished results
[3] = In vitro metabolic stability in human liver microsomes; type: in vitro ADME; settings: 1 μM; 0.5 mg/mL microsomes; up to 60 min
[4] = test system: Salmonella typhimurium TA100 and TA98; experiment: Ames mutagenicity assay; type: cell-based; settings: up to 10 μM, with and without S9
[5] = test system: L. mexicana; experiment: In vivo efficacy, murine model of cutaneous leishmaniasis; set-up: species or system BALB/c mice; settings: oral gavage 40–60 mg/kg/d for 10 days
[6] = test system: L. mexicana amastigote; type: cell-based; settings: Leishmania mexicana, J774.A1, read-out: inhibition at 0.1 μM vs L. mexicana

Row | Structure (SMILES) | metabolic stability (t1/2, min) vs MLM [1] [min] | metabolic stability (t1/2, min) vs HLM [3] [min] | efficacy in curing Plasmodium yoelli infections in mice [2] | Ames mutagenicity result [4] | in vivo efficacy compared with the other TAs tested [5] | inhibition of growth at 0.1 µM [6] [%]
1 | CCc1ccc(C2=N/C(=C\NC3CCCCCC3)C(C)=C2C)[nH]1.Cl [compound 110, (Z)-N-((5-Ethyl-3',4'-dimethyl-1H,5'H-[2,2'-bipyrrol]-5'-ylidene)methyl)cycloheptanamine Hydrochloride] | > 60.0 | > 60.0 | strong efficacy | negative | greater efficacy than both 95 and 101 | 
2 | COC1=CC(c2ccc[nH]2)=N/C1=C\Nc1ccccc1OC(F)(F)F [compound 59, (Z)-N-((4'-Methoxy-1H,5'H-[2,2'-bipyrrol]-5'-ylidene)methyl)-2-(trifluoromethoxy)aniline Hydrochloride] |  |  |  |  |  | ~30
3 | COc1ccc(Oc2ccc(N/C=C3\N=C(c4ccc[nH]4)C4=C3CCCC4)cc2)cc1.Cl [compound 108, (Z)-N-((3-(1H-Pyrrol-2-yl)-4,5,6,7-tetrahydro-1H-isoindol-1-ylidene)methyl)-4-(4-methoxyphenoxy)aniline Hydrochloride] | > 60.0 | > 60.0 |  |  |  | 
4 | CCc1c(C)[nH]c(C2=N/C(=C\NC34CC5CC(CC(C5)C3)C4)C(C)=C2C)c1C.Cl [compound 116] | 29.0 | > 60.0 |  |  |  | 
5 | COC1=CC(c2ccc(Cc3ccc(OC)cc3)[nH]2)=N/C1=C\NC1CCCCCCC1.Cl [compound 122, (Z)-N-((4'-Methoxy-5-(4-methoxybenzyl)-1H,5'H-[2,2'-bipyrrol]-5'-ylidene)methyl)cyclooctanamine Hydrochloride] | 16.5 | 50.8 |  |  |  | 

Second part, led by results:

Row | metabolic stability (t1/2, min) vs MLM [1] [min] | metabolic stability (t1/2, min) vs HLM [3] [min] | Structure (SMILES) | efficacy in curing Plasmodium yoelli infections in mice [2] | Ames mutagenicity result [4] | in vivo efficacy compared with the other TAs tested [5] | inhibition of growth at 0.1 µM [6] [%]
6 | 37.5 | 23.3 | CCC1=C(CC)/C(=C/N[C@H]2CC[C@H](C)CC2)N=C1c1ccc[nH]1.Cl [compound 95, (1r,4r)-N-((Z)-(3',4'-Diethyl-1H,5'H-[2,2'-bipyrrol]-5'-ylidene)methyl)-4-methylcyclohexan-1-amine Hydrochloride] | strong efficacy |  |  | 
7 | 33.0 | 26.7 | C(/NC1CCCCC1)=C1/N=C(c2ccc[nH]2)C2=C1CCCC2.Cl [compound 101, (Z)-N-((3-(1H-Pyrrol-2-yl)-4,5,6,7-tetrahydro-1H-isoindol-1-ylidene)methyl)cyclohexanamine Hydrochloride] | strong efficacy |  |  | 
8 | 11.2 | 45.1 | CC1=C(C)/C(=C/NC2CCCCCC2)N=C1c1ccc[nH]1.Cl [compound 90] |  |  |  | 
9 | > 60.0 | > 60.0 | C(/NCC1CCCCCC1)=C1/N=C(c2ccc[nH]2)C2=C1CCCC2.Cl [compound 104, (Z)-1-(3-(1H-Pyrrol-2-yl)-4,5,6,7-tetrahydro-1H-isoindol-1-ylidene)-N-(cycloheptylmethyl)methanamine Hydrochloride] |  |  |  | 
